In patent US6362212B1, “Oxime derivative and bactericide containing the same as active ingredient” (Shionogi & Company, Ltd., priority 1994, dated 2002):

What was measured:
[1] = tested on: Sphaerotheca fuliginea; test: Controlling effect on Sphaerotheca fuliginea by foliage application (pot experiment); type: in vivo; conditions: Podosphaera fuliginea, in Cucumis sativus, foliar, 240 h, foliage spray on cucumber (cv. TSUKUBASHIROIBO) first leaves, infected area after 10 days in greenhouse at 20° C., read-out: Controlling effect on Sphaerotheca fuliginea by foliage application at 500 ppm (percent control)
Summary of the method: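 First leaves of cucumber seedlings, 2-3 weeks old, were sprayed with compound (DMF solution diluted in water with spreader). They were inoculated 24 h later with a Sphaerotheca fuliginea conidia spray and kept 10 days at 20° C in a greenhouse. Percent control was calculated from infected leaf area.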

[2] = tested on: Pseudoperonospora cubensis; test: Controlling effect on Pseudoperonospora cubensis by foliage application (pot experiment); type: in vivo; conditions: foliage spray on cucumber (var. TSUKUBASHIROIBO) first leaves, lesion area after 10 days in moist chamber at 20° C.
Summary of the method: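 Cucumber plants grown 2–3 weeks were sprayed on first leaves with compound (DMF solution diluted in water with spreader); 24 h later, Pseudoperonospora cubensis zoosporangia suspension dropped on leaves. Plants held in moist chamber at 20° C for 10 days; lesion area observed and percent control calculated.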

[3] = tested on: Pyricularia oryzae; type: in vivo; conditions: foliage spray on rice seedlings (cv. […]), number of lesions six days after the inoculation
[4] = tested on: Erysiphe graminis f. sp. tritici; test: Controlling effect on Erysiphe graminis f. sp. tritici by foliage application (pot experiment); type: in vivo; conditions: Blumeria graminis, foliar, 240 h, foliage spray on wheat (cv. NORIN No. 61) seedlings, infected area after 10 days in greenhouse at 20° C., read-out: Controlling effect on ErYsiphe graminis f. sp. tritici by foliage application at 500 ppm (percent control)
Summary of the method: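 Wheat seedlings (cv. NORIN No. 61, 2-3 weeks old) sprayed with compound in DMF diluted in water with spreader, then inoculated with conidia 24 hours later. Kept in greenhouse at 20 °C for 10 days; percent control calculated from infected leaf area.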

[5] = tested on: Puccinia coronata; test: Controlling effect on Puccinia coronata by foliage application (pot experiment); type: in vivo; conditions: foliage spray on oat (cv. PC-38) seedlings, infected area after 1 day moist chamber and 8 days greenhouse at 20° C.
Summary of the method: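 Oat seedlings (cv. PC-38, 2–3 weeks old) were sprayed with compound in DMF diluted with spreader-containing water, then inoculated 24 h later with P. coronata spores diluted in talc. Plants were held 1 day in a moist chamber at 20° C, then 8 days in a greenhouse at 20° C; percent control came from infected leaf area.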

[6] = tested on: Botrytis cinerea; test: Controlling effect on Botrytis cinerea by foliage application (pot experiment); type: in vivo; conditions: foliage spray on cucumber (cv. TSUKUBASHIROIBO) first leaves, mycelial disks, lesion diameter after 3 days in moist chamber at 20° C.
Method: The following Test Examples illustrate the effects of the fungicide of the present invention. (I. Controlling effects on various plant diseases by foliage application (pot experiment)) A test compound was dissolved in a small amount of N,N-dimethylformamide, and the solution was diluted to a given concentration with distilled water containing a spreader. Thus, a liquid sample to be tested was prepared. The liquid sample was sprayed to test plants, and 24 hours thereafter, pathogens were inoculated by the method described below. […] The seeds of cucumber ([…]) were sown in plastic cups (each 9 cm in diameter), followed by cultivation for 2 to 3 weeks. The test compound in the form of a solution or suspension was sprayed to the surface of their first leaves, and mycelial disks (4 mm φ) of Botrytis cinerea cultured on the potato sucrose agar medium were put on the leaf surfaces to inoculate. the cucumber seedlings with the pathogen. The plants were kept in a moist chamber at 20° C. for 3 days. The diameter of the lesions on the leaves was measured and the percent control was calculated.

With CON=C(c1cc(C)no1)c1ccccc1CON=C(C)c1ccc(Cl)c(Cl)c1 [compound 2528, 2-(3,4-dichloro-α-methylbenzylideneaminooxymethyl)phenyl 3-methylisoxazol-5-yl ketone O-methyloxime] the pest or weed control at 500 ppm [1] was 100%, the “Controlling effect on Pseudoperonospora cubensis by foliage application at 500 ppm (percent control)” value [2] was 100 percent control and the melting point was 84 to 85 °C.

In the case of CON=C(c1ncno1)c1ccccc1COc1ccc(Cl)cc1 [Compound No. 1584, 2-(4-chlorophenoxymethyl)phenyl 1,2,4-oxadiazol-5-yl ketone O-methyloxime], the “Controlling effect on PYricularia orYzae by foliage application at 500 ppm (percent control)” value [3] is reported as 70 percent control, the pest or weed control at 500 ppm [1] is reported as 100% and the pest or weed control at 500 ppm [4] is reported as 100%. The “Controllng effect on Puccinia coronata by foliage application at 500 ppm (percent control)” value (“Controllng effect … (percent control)” below) [5] was 70 percent control and the melting point was 96 to 97.5 °C.

Work on CON=C(c1nnn(C)n1)c1ccccc1COc1cc(C)ccc1C [Compound No. 2036, 2-(2,5-dimethylphenoxymethyl)phenyl 2-methyl-2H-tetrazol-5-yl ketone O-methyloxime] yielded a pest or weed control at 500 ppm [1] of 100%, a pest or weed control at 500 ppm [4] of 90% and a melting point of 131 to 132 °C.

With CON=C(c1nnco1)c1ccccc1COc1cc(C)ccc1C [Compound No. 736, 2-(2,5-dimethylphenoxymethyl)phenyl 1,3,4-oxadiazol-2-yl ketone O-methyloxime] the pest or weed control at 500 ppm [1] was 100%, the pest or weed control at 500 ppm [4] was 100% and the “Controllng effect … (percent control)” value [5] was 100 percent control. It also gave a melting point of 134 to 135 °C.

With CON=C(c1ccccc1COc1cccc(Cl)c1)n1ccnc1 [Compound No. 6, 1-[2-(3-chlorophenoxymethyl)-α-methoxyiminobenzyl]imidazole] the “Controlling effect on PYricularia orYzae by foliage application at 500 ppm (percent control)” value [3] was 90 percent control, the “Controlling effect on Botrytis cinerea by foliage application at 500 ppm (percent control)” value [6] was 100 percent control and the pest or weed control at 500 ppm [4] was 100%. The “Controllng effect … (percent control)” value [5] was 100 percent control and the melting point was 96.5 to 97.5 °C.

For CON=C(c1ccon1)c1ccccc1COc1cc(C)ccc1C (single isomer, unassigned) [Compound No. 336, 2-(2,5-dimethylphenoxymethyl)phenyl isoxazol-3-yl ketone O-methyloxime], the “Controlling effect on PYricularia orYzae by foliage application at 500 ppm (percent control)” value [3] was 90 percent control, the pest or weed control at 500 ppm [1] was 100% and the pest or weed control at 500 ppm [4] was 97%. The “Controllng effect … (percent control)” value [5] was 100 percent control and the melting point was 104 to 108 °C.
